Tests used:
PC3 cells = test: Cell proliferation assay (MTS); assay type: cell-based, human; details: 96 h
Experimental: (§1) Cells were seeded in 96-well plates and treated with exemplary compound or control as indicated. At desired time points culture medium was supplemented with […] MTS (Promega) and […] phenazine methosulfate (Sigma) and incubated at 37° C. Mitochondrial reduction of MTS to the formazan derivative was monitored by measuring the medium's absorbance at 490 nm using a Wallac Victor 2 plate reader (Perkin-Elmer Life Sciences). Data analysis and statistics was performed using Prism 7.0 (GraphPad).

MDA-MB-231 cells [1] = test: Cell proliferation assay (MTS); assay type: cell-based, human; details: 96 hours
Experimental: as §1

S6RP = test: Western blot of S6RP total levels in MDA-MB-231 cells; assay type: cell-based, human; details: 10% FBS, varying concentrations
Experimental: If not indicated otherwise, cells were seeded and grown to 80% confluency and were treated with compound or control for 24 hours. Subsequently, the growth media was removed and the cells lysed by the addition of lysis buffer (25 mM Tris, pH 7.4; 1% NP-40, 0.25% deoxycholate, 1 mM sodium vanadate, 10 mM sodium fluoride, 10 mM sodium pyrophosphate, 20 mM β-glycerophosphate and 1× complete EDTA-free protease inhibitor cocktail (Roche)). After 20 minutes the mixture was spun down at 16,000×g for 10 minutes at 4° C. to pellet insoluble materials. Protein concentration of supernatants were determined via BCA assay (Thermo Fisher) before addition of NuPAGE sample buffer containing 5% β-Me and boiling at 95° C. for 10 minutes. Equal amounts of protein were subjected to SDS-PAGE and subsequent electrophoretic transfer onto nitrocellulose membrane. Rabbit antibodies were purchased from Cell Signaling: Fak (3285), p-Fak (3283), p-Paxillin (2541), p-Akt (S473)(4060), GAPDH (2118), Androgen Receptor (5153), p-Src(Y527)(2105), p-S6RP (2215). Mouse antibodies were purchased from Cell Signaling: tubulin (3873), S6RP (2317). […] Immunoblots were developed using enhanced chemiluminescence and visualized using a Bio-Rad Chemi-Doc MP Imaging System and quantitated with Image Lab v.5.2.1 software (Bio-Rad Laboratories). […]

MDA-MB-231 cells [2] = test: Wound healing assay; assay type: cell-based, human; details: 24 hours
Experimental: MDA-MB-231 cells were maintained in complete growth medium (RPMI-1640) at 37° C. supplied with 5% CO2. Cells (1×10^6) were split in to a 12-well plate. After 24 hours an even wound was created across each well using a sterile 10 μL pipette tip and the cells were washed with warm phosphate-buffered solution (PBS) twice to remove any floating or dead cells. This time point was considered as 0 hours and cells were incubated in fresh medium containing exemplary compound or control as indicated, for 24 hours. Images of wounded area were captured at 0 hour and after 24 hours using a camera attached to a light microscope. Images were analyzed by ImageJ software and wounded area was quantified. The area of the remaining wound at 24 hours was subtracted from the area of the wound at 0 hour. Percent wound healing (migration) was calculated and data presented as a bar graph using Prism 7.0 (GraphPad). Differences between groups were analyzed by Welch's t-test and considered significant when p<0.05.
Since Fak is a key regulator of cell motility, exemplary compound 102 was evaluated for its effect on cell migration and invasion. […] Effects on cell migration were analyzed in a wound healing assay using the aggressive and invasive human TNBC cell line MDA-MB-231. […] Wound closure was quantified after 24 hours (FIGS. 13A and 13B).

androgen receptor (AR) = test: Western blot validation of RPPA results in MDA-MB-231 cells; assay type: cell-based, human; details: 10% FBS, varying concentrations
Experimental: (§2) If not indicated otherwise, cells were seeded and grown to 80% confluency and were treated with compound or control for 24 hours. Subsequently, the growth media was removed and the cells lysed by the addition of lysis buffer (25 mM Tris, pH 7.4; 1% NP-40, 0.25% deoxycholate, 1 mM sodium vanadate, 10 mM sodium fluoride, 10 mM sodium pyrophosphate, 20 mM β-glycerophosphate and 1× complete EDTA-free protease inhibitor cocktail (Roche)). After 20 minutes the mixture was spun down at 16,000×g for 10 minutes at 4° C. to pellet insoluble materials. Protein concentration of supernatants were determined via BCA assay (Thermo Fisher) before addition of NuPAGE sample buffer containing 5% β-Me and boiling at 95° C. for 10 minutes. Equal amounts of protein were subjected to SDS-PAGE and subsequent electrophoretic transfer onto nitrocellulose membrane. Rabbit antibodies were purchased from Cell Signaling: Fak (3285), p-Fak (3283), p-Paxillin (2541), p-Akt (S473)(4060), GAPDH (2118), Androgen Receptor (5153), p-Src(Y527)(2105), p-S6RP (2215). Mouse antibodies were purchased from Cell Signaling: tubulin (3873), S6RP (2317). Secondary antibody ∝-rabbit (31460) or ∝-mouse (31444) was coupled to horseradish peroxidase and purchased from Thermo Fisher. Immunoblots were developed using enhanced chemiluminescence and visualized using a Bio-Rad Chemi-Doc MP Imaging System and quantitated with Image Lab v.5.2.1 software (Bio-Rad Laboratories). Data analysis and statistics was performed using Prism 7.0 (GraphPad).
(§3) It has been previously shown that extranuclear AR is involved in cell migration and forms a multiprotein complex comprised of filamin A/β-1 integrin/Fak/AR in NIH3T3 fibroblasts that facilitates Fak activation. […] Phosphorylation of S6RP occurs via the Src-Fak-PI3K pathway and p-S6RP is required for the initiation of translation in response to cell growth and proliferation.

p-Src(Y527) = test: as above; assay type: cell-based, human; details: 10% FBS, varying concentrations
Experimental: as §2, §3

p-S6RP(S240/S244) = test: as above; assay type: cell-based, human; details: 10% FBS, varying concentrations
Experimental: as §2, §3

p-Akt(S473) = test: as above; assay type: cell-based, human; details: 10% FBS, varying concentrations
Experimental: as §2, §3

set of 468 kinases = test: KinomeScan kinase engagement assay (DiscoverX); assay type: binding; details: 1000 nM, 403 non-mutant kinases
Experimental: The Kinase engagement assay was performed by DiscoverX assessing binding abilities towards a set of 468 kinases.
Examination of Target Protein Selectivity. To assess the target selectivity of exemplary compound 102 over a large panel of different kinases, a DiscoverX KINOMEScan was performed. KINOMEScan measures compound binding to individual kinases via the compounds ability to compete/displace the kinases from an immobilized support that non-selectively binds kinase active sites. […] It appears that the slight loss in inhibitory potency due to linker and VHL ligand attachment results in greater selectivity.

Fak = Fak (Homo sapiens, UniProt Q05397); test: Kinase activity assay (Reaction Biology Corp.); assay type: biochemical; design: purchased Reaction Biology Corp. (contract assay service); details: 10 μM ATP, n = 2
Experimental: Reactions were carried out at 10 μM ATP. IC50 values were calculated using Prism 7.0 (GraphPad).

p-Fak(Y397) = test: Fak activation, western blot in PC3 cells; assay type: cell-based, human; details: serum deprived PC3 cells, 24 h
Experimental: as §2
Fak levels are undetectable at concentrations of 100 nM through 1 μM of exemplary compound 102, and slightly rebound at concentrations of 5 μM (10%) and 10 μM (27%) due to an observed hook effect. […] Paxillin, a downstream target of the Fak-Src complex, has been associated with cell migration. […] Akt is a kinase that is tied to the Fak signaling cascade via PI3K, but can be activated through other pathways as well. […] A maximum p-Akt suppression of 93% is observed at 1 μM of exemplary compound 102. […]

Fak, sequence (Q05397 whole entry): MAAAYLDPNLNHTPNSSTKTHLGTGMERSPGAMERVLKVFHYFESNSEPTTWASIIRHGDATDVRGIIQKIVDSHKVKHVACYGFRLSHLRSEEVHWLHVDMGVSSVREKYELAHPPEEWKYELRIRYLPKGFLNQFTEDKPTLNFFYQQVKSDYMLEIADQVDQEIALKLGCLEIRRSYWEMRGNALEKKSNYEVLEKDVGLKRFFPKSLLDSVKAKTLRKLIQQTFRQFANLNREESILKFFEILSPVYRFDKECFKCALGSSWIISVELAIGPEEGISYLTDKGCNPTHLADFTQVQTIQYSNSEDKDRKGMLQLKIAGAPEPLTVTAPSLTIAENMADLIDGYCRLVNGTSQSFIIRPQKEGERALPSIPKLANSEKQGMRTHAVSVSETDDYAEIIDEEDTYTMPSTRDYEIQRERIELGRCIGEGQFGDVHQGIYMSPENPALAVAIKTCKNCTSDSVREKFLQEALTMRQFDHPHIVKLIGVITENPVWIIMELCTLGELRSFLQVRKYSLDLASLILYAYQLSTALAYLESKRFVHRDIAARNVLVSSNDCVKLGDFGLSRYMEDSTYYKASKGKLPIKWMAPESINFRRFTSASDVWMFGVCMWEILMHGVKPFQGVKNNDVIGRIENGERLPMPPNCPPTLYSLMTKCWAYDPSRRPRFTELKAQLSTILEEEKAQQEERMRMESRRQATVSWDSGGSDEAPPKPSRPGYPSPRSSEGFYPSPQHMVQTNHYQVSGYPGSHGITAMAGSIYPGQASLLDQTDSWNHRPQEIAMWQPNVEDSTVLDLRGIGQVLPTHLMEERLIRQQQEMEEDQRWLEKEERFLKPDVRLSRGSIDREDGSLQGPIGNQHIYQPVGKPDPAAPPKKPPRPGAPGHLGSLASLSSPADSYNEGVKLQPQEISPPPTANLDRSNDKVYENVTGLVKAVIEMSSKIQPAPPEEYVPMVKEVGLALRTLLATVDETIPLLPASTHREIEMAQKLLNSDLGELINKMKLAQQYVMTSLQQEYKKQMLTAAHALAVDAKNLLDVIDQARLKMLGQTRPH

Cc1ncsc1-c1ccc(CNC(=O)[C@@H]2C[C@@H](O)CN2C(=O)[C@@H](NC(=O)CCOCCOc2ccc(Nc3ncc(C(F)(F)F)c(NCc4cccc(N(C)S(C)(=O)=O)c4)n3)cc2)C(C)(C)C)cc1 [Compound 102, (2S,4R)-1-((S)-3,3-dimethyl-2-(3-(2-(4-((4-((3-(N-methylmethylsulfonamido)benzyl)amino)-5-(trifluoromethyl)pyrimidin-2-yl)amino)phenoxy)ethoxy)propanamido)butanoyl)-4-hydroxy-N-(4-(4-methylthiazol-5-yl)benzyl)pyrrolidine-2-carboxamide]
cell viability or proliferation (in words) (PC3 cells): do not affect cell viability or proliferation within four days | cell viability or proliferation (in words) (MDA-MB-231 cells [1]): do not affect cell viability or proliferation within four days | total S6RP levels (in words) (S6RP): unchanged | reduction of wound healing (MDA-MB-231 cells [2]; 50 nM): 53% | impairment of wound closure (MDA-MB-231 cells [2]; 250 nM): 70% | AR levels (in words) (androgen receptor (AR)): reduction of AR levels | p-Src(Y527) levels (in words) (p-Src(Y527)): reduced levels | phosphorylation of S6RP (in words) (p-S6RP(S240/S244)): reduced phosphorylation | p-Akt(S473) levels (in words) (p-Akt(S473)): reduced levels of p-Akt(S473) | Number of Hits, S(10) (set of 468 kinases): 7 | Selectivity Score, S(1) (set of 468 kinases): 0.002 | Selectivity Score, S(10) (set of 468 kinases): 0.017 | Selectivity Score, S(35) (set of 468 kinases): 0.05 | Number of Hits, S(35) (set of 468 kinases; less than 35% of control remaining): 20 | IC50 (Fak): 6.5 nM | p-Fak levels (p-Fak(Y397); between 100 nM and 5 μM): less than 5% | Fak activation (p-Fak(Y397)) compared to DMSO (in words) (p-Fak(Y397); increasing concentrations): significantly reduced

CNC(=O)c1ccc(Nc2ncc(C(F)(F)F)c(NCc3nccnc3N(C)S(C)(=O)=O)n2)cc1 [Defactinib, defactinib, reference compound]
lowest level of p-Fak activity (remaining) (p-Fak(Y397); 10 μM): 26%
